{"source": "ChEMBL document CHEMBL5465560", "about": "“Selectivity Literature for EUbOPEN Chemogenomic Library” (2024)", "key": {"[1]": {"molecular_target": "Serine/threonine-protein kinase N1 (Homo sapiens, UniProt Q16512)", "sequence (Q16512 2-942 limits assumed)": "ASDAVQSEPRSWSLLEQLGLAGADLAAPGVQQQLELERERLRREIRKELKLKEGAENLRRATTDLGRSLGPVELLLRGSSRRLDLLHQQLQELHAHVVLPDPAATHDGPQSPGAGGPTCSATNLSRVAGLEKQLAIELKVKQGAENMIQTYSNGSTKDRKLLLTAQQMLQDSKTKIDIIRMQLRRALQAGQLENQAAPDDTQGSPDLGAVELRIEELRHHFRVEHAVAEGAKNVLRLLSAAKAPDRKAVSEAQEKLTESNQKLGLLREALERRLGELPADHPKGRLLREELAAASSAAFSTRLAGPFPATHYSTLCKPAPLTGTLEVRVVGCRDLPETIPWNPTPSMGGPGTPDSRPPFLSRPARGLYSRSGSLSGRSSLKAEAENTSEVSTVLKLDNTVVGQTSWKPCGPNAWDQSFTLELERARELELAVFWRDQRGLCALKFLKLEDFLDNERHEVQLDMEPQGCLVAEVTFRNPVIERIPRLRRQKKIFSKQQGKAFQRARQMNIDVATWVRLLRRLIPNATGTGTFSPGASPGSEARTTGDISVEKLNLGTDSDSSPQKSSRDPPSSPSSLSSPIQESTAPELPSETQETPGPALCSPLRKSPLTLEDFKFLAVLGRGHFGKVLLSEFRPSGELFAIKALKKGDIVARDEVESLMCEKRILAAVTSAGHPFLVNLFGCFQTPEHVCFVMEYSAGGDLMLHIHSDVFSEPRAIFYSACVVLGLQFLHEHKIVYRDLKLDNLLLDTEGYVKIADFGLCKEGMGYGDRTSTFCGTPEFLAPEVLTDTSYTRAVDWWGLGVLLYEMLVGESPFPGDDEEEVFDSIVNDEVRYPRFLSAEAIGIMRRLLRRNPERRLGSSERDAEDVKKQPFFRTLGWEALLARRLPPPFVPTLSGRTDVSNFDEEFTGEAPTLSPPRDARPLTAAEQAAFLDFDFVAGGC", "assay": "Selectivity interaction (SelectScreen profiling (Invitrogen)) EUB0000607a PKN1", "details": "at 2 µM"}, "[2]": {"molecular_target": "Mitogen-activated protein kinase 4 (Homo sapiens) (UniProt P31152)", "details": "at 10 µM"}, "[3]": {"molecular_target": "Ribosomal protein S6 kinase beta-1 (Homo sapiens, UniProt P23443)", "assay": "Selectivity interaction (ActivX KiNativ screen (kinase selectivity in THP-1 cell lysates)) EUB0000639a RPS6KB1", "type": "subcellular", "details": "lysate, at 0.01 µM"}, "[4]": {"molecular_target": "T1, Serine/threonine-protein kinase TAO1 (Homo sapiens) (UniProt Q7L7X3)", "T1 sequence (whole entry)": "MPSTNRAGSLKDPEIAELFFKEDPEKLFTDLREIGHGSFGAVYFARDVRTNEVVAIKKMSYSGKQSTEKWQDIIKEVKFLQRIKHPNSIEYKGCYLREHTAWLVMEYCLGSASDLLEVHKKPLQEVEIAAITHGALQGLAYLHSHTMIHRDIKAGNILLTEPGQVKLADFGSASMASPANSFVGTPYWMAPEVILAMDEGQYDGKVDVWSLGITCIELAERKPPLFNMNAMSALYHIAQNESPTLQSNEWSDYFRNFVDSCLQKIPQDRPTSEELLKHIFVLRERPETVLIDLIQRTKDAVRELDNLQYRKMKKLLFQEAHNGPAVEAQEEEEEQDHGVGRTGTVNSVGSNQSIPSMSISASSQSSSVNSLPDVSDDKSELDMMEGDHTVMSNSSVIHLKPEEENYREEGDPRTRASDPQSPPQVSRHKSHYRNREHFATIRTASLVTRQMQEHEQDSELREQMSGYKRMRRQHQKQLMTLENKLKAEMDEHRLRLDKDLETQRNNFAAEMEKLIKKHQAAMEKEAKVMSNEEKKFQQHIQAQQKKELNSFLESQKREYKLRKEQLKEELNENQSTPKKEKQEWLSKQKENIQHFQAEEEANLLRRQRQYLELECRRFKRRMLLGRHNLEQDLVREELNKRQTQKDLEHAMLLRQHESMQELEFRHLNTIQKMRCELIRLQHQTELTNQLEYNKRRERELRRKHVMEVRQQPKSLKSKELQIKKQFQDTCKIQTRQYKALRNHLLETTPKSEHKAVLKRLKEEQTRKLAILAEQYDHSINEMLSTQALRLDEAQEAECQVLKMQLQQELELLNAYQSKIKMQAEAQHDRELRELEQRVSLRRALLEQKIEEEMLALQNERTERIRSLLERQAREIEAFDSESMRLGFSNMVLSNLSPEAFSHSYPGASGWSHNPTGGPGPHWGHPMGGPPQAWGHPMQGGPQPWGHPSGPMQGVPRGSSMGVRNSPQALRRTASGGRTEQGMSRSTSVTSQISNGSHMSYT", "assay": "Selectivity interaction (KinomeScan (DiscoverX)) EUB0000695a TAOK1", "details": "at 100 nM"}, "[5]": {"molecular_target": "Transient receptor potential cation channel subfamily M member 6 (Homo sapiens) (UniProt Q9BX84)", "assay": "Selectivity interaction (KinomeScan (DiscoverX)) EUB0000695a TRPM6", "details": "at 100 nM"}, "[6]": {"molecular_target": "Tyrosine-protein kinase JAK2 (Homo sapiens, UniProt O60674)", "assay": "Selectivity interaction (KinomeScan (DiscoverX)) EUB0000595a JAK2", "details": "at 10 µM"}, "[7]": {"molecular_target": "Glycogen synthase kinase-3 beta (Homo sapiens, UniProt P49841)", "sequence (P49841 whole entry, looked up)": "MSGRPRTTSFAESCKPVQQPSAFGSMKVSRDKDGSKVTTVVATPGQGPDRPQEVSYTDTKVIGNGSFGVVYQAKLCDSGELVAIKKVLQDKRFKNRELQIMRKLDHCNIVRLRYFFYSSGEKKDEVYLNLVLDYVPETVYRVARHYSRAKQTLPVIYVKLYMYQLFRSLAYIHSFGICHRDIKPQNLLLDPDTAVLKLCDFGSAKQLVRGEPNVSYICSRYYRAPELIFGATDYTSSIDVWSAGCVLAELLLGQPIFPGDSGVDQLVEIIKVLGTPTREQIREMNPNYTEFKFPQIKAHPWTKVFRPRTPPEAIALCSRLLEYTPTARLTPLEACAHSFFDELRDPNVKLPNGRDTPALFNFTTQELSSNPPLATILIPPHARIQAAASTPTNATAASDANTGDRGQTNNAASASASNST", "assay": "Selectivity interaction (Kinase panel (DSF assay)) EUB0001558a GSK3B"}, "[8]": {"molecular_target": "Homeodomain-interacting protein kinase 2 (Homo sapiens, UniProt Q9H2X6)", "sequence (Q9H2X6 whole entry, looked up)": "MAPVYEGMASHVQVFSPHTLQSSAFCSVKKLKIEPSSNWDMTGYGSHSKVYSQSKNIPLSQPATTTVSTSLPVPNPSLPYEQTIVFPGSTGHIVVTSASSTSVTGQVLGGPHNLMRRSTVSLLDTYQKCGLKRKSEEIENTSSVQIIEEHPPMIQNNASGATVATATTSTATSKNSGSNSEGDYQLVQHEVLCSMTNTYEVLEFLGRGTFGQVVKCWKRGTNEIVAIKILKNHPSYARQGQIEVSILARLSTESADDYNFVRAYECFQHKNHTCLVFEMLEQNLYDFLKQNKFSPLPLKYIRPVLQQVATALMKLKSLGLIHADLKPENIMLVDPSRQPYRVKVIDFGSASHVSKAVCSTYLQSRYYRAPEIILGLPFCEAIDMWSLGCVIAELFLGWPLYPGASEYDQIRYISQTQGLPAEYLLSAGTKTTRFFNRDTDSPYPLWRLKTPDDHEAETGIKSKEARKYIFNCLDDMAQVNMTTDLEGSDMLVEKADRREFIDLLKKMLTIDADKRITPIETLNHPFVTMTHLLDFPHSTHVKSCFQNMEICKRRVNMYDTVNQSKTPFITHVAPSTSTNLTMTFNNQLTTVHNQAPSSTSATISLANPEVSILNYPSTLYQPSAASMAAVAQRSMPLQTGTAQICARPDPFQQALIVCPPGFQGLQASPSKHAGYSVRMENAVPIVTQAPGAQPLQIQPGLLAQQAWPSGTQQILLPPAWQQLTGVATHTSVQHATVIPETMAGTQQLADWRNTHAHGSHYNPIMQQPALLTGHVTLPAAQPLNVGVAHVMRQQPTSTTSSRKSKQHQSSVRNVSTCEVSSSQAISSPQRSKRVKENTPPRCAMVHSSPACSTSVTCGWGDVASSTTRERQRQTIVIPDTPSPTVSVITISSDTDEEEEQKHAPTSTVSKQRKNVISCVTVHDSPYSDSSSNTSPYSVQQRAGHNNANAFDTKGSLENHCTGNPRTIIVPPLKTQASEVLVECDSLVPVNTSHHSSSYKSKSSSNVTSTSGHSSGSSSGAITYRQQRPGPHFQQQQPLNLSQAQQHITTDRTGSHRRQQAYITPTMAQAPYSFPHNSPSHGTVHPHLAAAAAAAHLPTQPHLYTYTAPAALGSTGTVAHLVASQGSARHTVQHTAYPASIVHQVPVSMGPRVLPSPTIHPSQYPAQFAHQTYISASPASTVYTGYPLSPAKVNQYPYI", "assay": "Selectivity interaction (KinomeScan (DiscoverX)) EUB0000655a HIPK2", "details": "at 10 µM"}, "[9]": {"molecular_target": "Phosphatidylinositol 4,5-bisphosphate 3-kinase catalytic subunit alpha isoform (Homo sapiens) (UniProt P42336)", "sequence (P42336 whole entry, canonical isoform)": "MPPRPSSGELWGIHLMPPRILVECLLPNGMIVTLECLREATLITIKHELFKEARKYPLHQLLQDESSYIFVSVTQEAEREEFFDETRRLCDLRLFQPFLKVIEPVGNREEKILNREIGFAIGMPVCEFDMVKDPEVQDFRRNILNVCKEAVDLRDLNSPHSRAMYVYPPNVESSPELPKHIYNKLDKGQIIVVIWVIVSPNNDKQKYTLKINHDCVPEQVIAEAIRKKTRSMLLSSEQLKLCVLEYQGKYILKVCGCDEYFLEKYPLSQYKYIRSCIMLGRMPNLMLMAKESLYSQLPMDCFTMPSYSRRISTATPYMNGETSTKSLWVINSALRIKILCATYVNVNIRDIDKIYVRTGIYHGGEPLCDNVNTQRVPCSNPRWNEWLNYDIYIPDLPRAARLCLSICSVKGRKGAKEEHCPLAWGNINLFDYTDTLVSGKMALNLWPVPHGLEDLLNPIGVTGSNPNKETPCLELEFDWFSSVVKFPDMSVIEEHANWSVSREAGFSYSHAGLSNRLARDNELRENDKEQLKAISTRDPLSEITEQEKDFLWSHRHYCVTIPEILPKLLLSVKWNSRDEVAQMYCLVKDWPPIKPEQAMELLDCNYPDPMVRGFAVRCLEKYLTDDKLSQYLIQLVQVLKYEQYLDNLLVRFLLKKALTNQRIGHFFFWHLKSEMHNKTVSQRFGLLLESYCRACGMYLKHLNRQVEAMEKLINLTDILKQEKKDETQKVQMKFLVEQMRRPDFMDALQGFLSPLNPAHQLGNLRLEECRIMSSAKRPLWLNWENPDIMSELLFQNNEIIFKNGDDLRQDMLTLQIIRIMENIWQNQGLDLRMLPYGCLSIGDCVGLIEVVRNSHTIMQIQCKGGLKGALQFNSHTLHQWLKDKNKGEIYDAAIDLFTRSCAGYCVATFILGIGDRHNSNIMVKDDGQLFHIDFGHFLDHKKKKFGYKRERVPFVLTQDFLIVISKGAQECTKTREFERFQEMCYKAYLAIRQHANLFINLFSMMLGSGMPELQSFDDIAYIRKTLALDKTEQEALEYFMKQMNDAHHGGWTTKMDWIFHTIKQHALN", "assay": "(§1) Selectivity interaction (KinomeScan (DiscoverX)) EUB0000045b PIK3CA"}, "[10]": {"system": "Phosphatidylinositol 4,5-bisphosphate 3-kinase catalytic subunit alpha isoform (Homo sapiens), P42336 [E542K]", "sequence (P42336 whole entry E542K, canonical isoform)": "as the sequence (P42336 whole entry, canonical isoform) above, with E542K counted along it", "assay": "as §1"}, "[11]": {"system": "Phosphatidylinositol 4,5-bisphosphate 3-kinase catalytic subunit alpha isoform (Homo sapiens), P42336 [E545A]", "sequence (P42336 whole entry E545A, canonical isoform)": "as the sequence (P42336 whole entry, canonical isoform) above, with E545A counted along it", "assay": "as §1"}, "[12]": {"system": "Phosphatidylinositol 4,5-bisphosphate 3-kinase catalytic subunit alpha isoform (Homo sapiens), P42336 [H1047Y]", "sequence (P42336 whole entry H1047Y, canonical isoform)": "as the sequence (P42336 whole entry, canonical isoform) above, with H1047Y counted along it", "assay": "as §1"}, "[13]": {"system": "Phosphatidylinositol 4,5-bisphosphate 3-kinase catalytic subunit alpha isoform (Homo sapiens), P42336 [I800L]", "sequence (P42336 whole entry I800L, canonical isoform)": "as the sequence (P42336 whole entry, canonical isoform) above, with I800L counted along it", "assay": "as §1"}, "[14]": {"molecular_target": "Transcription intermediary factor 1-beta (Homo sapiens) (UniProt Q13263)", "sequence (Q13263 whole entry)": "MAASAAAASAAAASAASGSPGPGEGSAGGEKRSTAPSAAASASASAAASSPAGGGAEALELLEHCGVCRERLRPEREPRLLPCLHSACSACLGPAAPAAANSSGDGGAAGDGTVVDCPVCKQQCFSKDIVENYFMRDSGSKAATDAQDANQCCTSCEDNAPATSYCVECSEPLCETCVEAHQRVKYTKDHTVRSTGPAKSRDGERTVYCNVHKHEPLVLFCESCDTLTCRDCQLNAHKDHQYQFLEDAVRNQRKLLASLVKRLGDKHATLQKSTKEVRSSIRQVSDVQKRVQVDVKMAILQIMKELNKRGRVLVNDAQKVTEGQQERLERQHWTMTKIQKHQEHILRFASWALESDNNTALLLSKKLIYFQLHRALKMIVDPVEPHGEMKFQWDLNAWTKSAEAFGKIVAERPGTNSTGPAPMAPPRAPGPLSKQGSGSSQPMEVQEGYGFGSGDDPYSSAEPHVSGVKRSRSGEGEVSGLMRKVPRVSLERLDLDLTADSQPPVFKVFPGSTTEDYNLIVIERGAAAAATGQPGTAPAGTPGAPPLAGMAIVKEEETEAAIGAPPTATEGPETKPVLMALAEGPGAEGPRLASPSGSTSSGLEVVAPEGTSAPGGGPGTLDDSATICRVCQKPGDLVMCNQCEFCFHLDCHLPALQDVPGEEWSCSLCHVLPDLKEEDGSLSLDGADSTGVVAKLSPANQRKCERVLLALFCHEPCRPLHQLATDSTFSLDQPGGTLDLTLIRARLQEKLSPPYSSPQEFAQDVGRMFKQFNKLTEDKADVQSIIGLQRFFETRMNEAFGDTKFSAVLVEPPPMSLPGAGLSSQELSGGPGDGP", "assay": "Selectivity interaction (Bromodomain panel (DSF asssay)) EUB0000270b TRIM28"}, "[15]": {"molecular_target": "Calcium/calmodulin-dependent protein kinase type II subunit gamma (Homo sapiens) (UniProt Q13555)", "assay": "Selectivity interaction (KinomeScan (DiscoverX)) EUB0000229b CAMK2G", "details": "at 10 µM"}, "[16]": {"molecular_target": "T2, Inhibitor of nuclear factor kappa-B kinase subunit beta (Homo sapiens) (UniProt O14920)", "T2 sequence (whole entry)": "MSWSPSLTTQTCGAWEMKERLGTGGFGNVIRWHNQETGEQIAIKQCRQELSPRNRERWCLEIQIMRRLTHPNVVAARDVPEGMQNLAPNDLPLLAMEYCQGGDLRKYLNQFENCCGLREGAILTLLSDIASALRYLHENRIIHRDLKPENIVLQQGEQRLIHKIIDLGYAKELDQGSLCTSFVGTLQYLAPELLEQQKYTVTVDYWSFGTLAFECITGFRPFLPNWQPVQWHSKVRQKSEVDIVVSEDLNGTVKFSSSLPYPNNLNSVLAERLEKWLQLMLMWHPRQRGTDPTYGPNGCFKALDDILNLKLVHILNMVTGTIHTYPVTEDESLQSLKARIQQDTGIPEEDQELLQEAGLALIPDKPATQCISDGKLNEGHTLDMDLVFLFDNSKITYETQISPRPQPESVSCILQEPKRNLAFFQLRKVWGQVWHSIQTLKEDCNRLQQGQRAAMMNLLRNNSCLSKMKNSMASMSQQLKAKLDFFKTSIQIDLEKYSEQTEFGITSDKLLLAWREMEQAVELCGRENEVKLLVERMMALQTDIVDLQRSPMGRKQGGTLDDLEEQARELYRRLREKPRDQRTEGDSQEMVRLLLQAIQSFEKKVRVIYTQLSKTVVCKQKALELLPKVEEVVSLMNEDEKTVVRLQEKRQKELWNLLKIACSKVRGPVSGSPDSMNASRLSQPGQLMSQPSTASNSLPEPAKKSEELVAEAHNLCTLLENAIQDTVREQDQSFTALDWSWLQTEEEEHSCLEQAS", "details": "at 10 µM"}, "[17]": {"molecular_target": "Cyclin-dependent kinase 9 (Homo sapiens, UniProt P50750)", "sequence (P50750 whole entry)": "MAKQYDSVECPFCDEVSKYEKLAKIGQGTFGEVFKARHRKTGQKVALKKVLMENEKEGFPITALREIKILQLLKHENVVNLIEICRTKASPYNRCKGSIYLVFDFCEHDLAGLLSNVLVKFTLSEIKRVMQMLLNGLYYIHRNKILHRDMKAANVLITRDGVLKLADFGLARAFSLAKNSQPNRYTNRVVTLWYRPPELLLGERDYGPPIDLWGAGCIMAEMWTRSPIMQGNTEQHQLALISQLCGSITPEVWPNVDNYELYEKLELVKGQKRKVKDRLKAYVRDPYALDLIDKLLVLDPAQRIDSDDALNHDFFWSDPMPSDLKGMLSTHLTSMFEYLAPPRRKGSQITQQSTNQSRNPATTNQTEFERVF", "assay": "Selectivity interaction (ActivX KiNativ screen (ex vivo kinase selectivity in human PBMCs)) EUB0001619a CDK9", "type": "cell-based", "details": "PBMC, at 1 µM"}}}
{"compound": "CNC(=O)Nc1ccc(-c2nc(N3CC4CCC(C3)O4)c3cnn(C4CCC5(CC4)OCCO5)c3n2)cc1", "values": [{"measurement": "% of inhibition", "setting": "[1]", "value": 14, "unit": "%"}]}
{"compound": "CCN(CC)CCCCNc1ncc2cc(-c3cc(OC)cc(OC)c3)c(NC(=O)NC(C)(C)C)nc2n1", "values": [{"measurement": "% of control", "setting": "[2]", "value": 100, "unit": "%"}]}
{"compound": "CC[C@@H]1[C@H](F)C(=O)N[C@@H]1COc1nccc2cc(C(N)=O)c(OC)cc12", "note": "[ZIMLOVISERTIB]", "values": [{"measurement": "% of inhibition", "setting": "[3]", "value": -0.4, "unit": "%"}]}
{"compound": "Cc1cc(F)c(C(=O)Nc2cccc(-c3nncn3C(C)C)n2)cc1-n1cnc(C2CC2)c1", "values": [{"measurement": "% of control", "setting": "[4]", "value": 100, "unit": "%"}, {"measurement": "% of control", "setting": "[5]", "value": 100, "unit": "%"}]}
{"compound": "COCC(=O)NC/C=C/c1ccc2ncnc(Nc3ccc(Oc4ccc(C)nc4)c(C)c3)c2c1", "note": "[CP-724714]", "values": [{"measurement": "% of control", "setting": "[6]", "value": 100, "unit": "%"}]}
{"compound": "CC(C)(O)[C@H](F)CN1Cc2cc(NC(=O)c3cnn4cccnc34)c(N3CCOCC3)cc2C1=O", "values": [{"measurement": "dTM", "setting": "[7]", "value": 0.9, "unit": "K"}]}
{"compound": "CN(C)CCOc1ccc(-c2nc(-c3ccncc3)c(-c3ccc4c(c3)CC/C4=N\\O)[nH]2)cc1", "values": [{"measurement": "% of control", "setting": "[8]", "value": 19, "unit": "%"}]}
{"compound": "C=CC(=O)Nc1cc(-n2c(=O)ccc3cnc4ccc(-c5ccc(NS(C)(=O)=O)cc5)cc4c32)ccc1C", "values": [{"measurement": "% of control", "setting": "[9]; at 1 µM", "value": 68, "unit": "%"}, {"measurement": "% of control", "setting": "[9]; at 10 µM", "value": 9.9, "unit": "%"}, {"measurement": "% of control", "setting": "[10]; at 1 µM", "value": 100, "unit": "%"}, {"measurement": "% of control", "setting": "[10]; at 10 µM", "value": 23, "unit": "%"}, {"measurement": "% of control", "setting": "[11]; at 1 µM", "value": 90, "unit": "%"}, {"measurement": "% of control", "setting": "[11]; at 10 µM", "value": 17, "unit": "%"}, {"measurement": "% of control", "setting": "[12]; at 1 µM", "value": 88, "unit": "%"}, {"measurement": "% of control", "setting": "[12]; at 10 µM", "value": 26, "unit": "%"}, {"measurement": "% of control", "setting": "[13]; at 1 µM", "value": 46, "unit": "%"}, {"measurement": "% of control", "setting": "[13]; at 10 µM", "value": 7.6, "unit": "%"}]}
{"compound": "Cc1cc(CN)cc(C)c1-c1ncn(C)c1-c1cncn1C", "values": [{"measurement": "dTM", "setting": "[14]", "value": -1.65, "unit": "K"}]}
{"compound": "COc1cc(N(C)c2ccnc3ccc(C(F)(F)F)cc23)cc(OC)c1OC", "values": [{"measurement": "% binding", "setting": "[15]", "value": 90, "unit": "%"}]}
{"compound": "Cc1cc([C@@H](C)Nc2ccccc2C(=O)O)c2nc(N3CCOCC3)cc(=O)n2c1", "note": "[AZD-6482]", "values": [{"measurement": "% of control", "setting": "[16]", "value": 90, "unit": "%"}]}
{"compound": "N#Cc1cccc(-c2c[nH]c3ncnc(N4CCOCC4)c23)c1", "values": [{"measurement": "% of inhibition", "setting": "[17]", "value": 22, "unit": "%"}]}
